{"source": "patent US20240238300A1", "about": "“TREATMENT METHODS FOR SUBJECTS WITH CANCER HAVING AN ABERRATION IN EGFR AND/OR HER2” (TAIHO PHARMACEUTICAL CO., LTD., priority 2021, published 2024)", "key": {"[1]": {"tested_on": "NCI-H1975 EGFR D770_N771insSVD cells", "test": "growth inhibitory effect in human cancer cell lines (GI50)", "format": "cell-based", "conditions": "lung cancer, EGFR exon 20 insertion"}, "[2]": {"tested_on": "intracranial NCI-N87-luc human gastric carcinoma xenografts", "test": "intracranial antitumor effect, NCI-N87-luc xenografts", "format": "in vivo, nude mice", "conditions": "Day 22", "protocol": "The intracranial antitumor effect of Compound (1) was evaluated using Compound (1) in nude mice intracranially implanted with NCI-N87-luc cells, which were engineered to stably express the luciferase gene using the HER2-overexpressing NCI-N87 human gastric carcinoma cell line. Compound (1) dosing suspensions using 0.5% w/v HPMC as vehicle were prepared with Compound (1) at 3 dose levels (16.0, 20.0, or 25.0 mg/kg/day) and administered PO QD for 21 days. The control group received 0.5% weight per volume (w/v) hydroxypropyl methylcellulose (HPMC) solution orally once daily for 21 days. The antitumor effect of poziotinib was also evaluated using this model. Poziotinib was administered PO QD for 21 days at 2 dose levels (0.5 or 1.0 mg/kg/day)."}, "NCI-N87 cells": {"tested_on": "NCI-N87 cells", "test": "growth inhibitory effect in human cancer cell lines (GI50)", "format": "cell-based", "conditions": "gastric cancer, HER2 gene amplification", "description": "(§1) Among the 9 cell lines tested, HER2 gene amplification has previously been reported in BT-474 cells (breast cancer) and NCI-N87 cells (gastric cancer), while HER2 gene mutation (DelG776insVC) has been reported in NCI-H1781 cells (lung cancer)."}, "NCI-H1781 cells": {"tested_on": "NCI-H1781 cells", "test": "growth inhibitory effect in human cancer cell lines (GI50)", "format": "cell-based", "conditions": "lung cancer, HER2 DelG776insVC", "description": "as §1"}, "BT-474 cells": {"tested_on": "BT-474 cells", "test": "growth inhibitory effect in human cancer cell lines (GI50)", "format": "cell-based", "conditions": "breast cancer, HER2 gene amplification", "description": "as §1"}, "[3]": {"tested_on": "MCF10A_HER2/insYVMA_v human mammary epithelial xenografts", "test": "antitumor effect in nude mice bearing MCF10A_HER2/insYVMA_v xenografts", "format": "in vivo", "conditions": "for T/C ratio of the mean tumor volume: Day 15", "protocol": "The antitumor effect of Compound (1) was evaluated in a nude mouse xenograft model of MCF10A_HER2/insYVMA_v. MCF10A_HER2/insYVMA_v was established as stably growing cells in vivo derived from MCF10A HER2/insYVMA (a human mammary epithelial cell line engineered to express the HER2 exon 20 insertion mutation A775_G776insYVMA) xenografts subcutaneously transplanted into nude mice. Compound (1) suspensions (using 0.5% w/v HPMC as vehicle) were administered orally once daily to mice at doses of 7.8, 12.5, or 20.0 mg/kg/day for 14 days. The control group received 0.5% weight per volume (w/v) hydroxypropyl methylcellulose (HPMC) solution orally once daily for 14 days.\nIn addition, the antitumor effect of poziotinib (an irreversible inhibitor of EGFR, HER2, and HER4) was also evaluated using this model."}, "BCRP": {"tested_on": "T1, BCRP", "T1 construct": "expressed in transfected cells; host or cells: MDCK II (canine kidney) cells expressing human BCRP; parent MDCK II as control", "test": "substrate susceptibility on human BCRP, bidirectional transcellular transport, BCRP/MDCK II cells", "format": "in vitro ADME", "conditions": "human, with Ko143 10 μmol/L; read-out: net flux ratio", "protocol": "(§2) Substrate susceptibility of Compound (1) on human BCRP. Time-dependence of the bidirectional transcellular transport of 0.3, 0.5, 1, 3, and 30 μmol/L Compound (1) across human BCRP/Madin-Darby canine kidney II (MDCK II) cells and parent/MDCK II cells was analyzed."}, "human BCRP": {"tested_on": "T2, human BCRP", "T2 construct": "expressed in transfected cells; host or cells: MDCK II (canine kidney) cells expressing human BCRP; parent MDCK II as control", "test": "substrate susceptibility on human BCRP, bidirectional transcellular transport, BCRP/MDCK II cells", "format": "in vitro ADME", "conditions": "human", "protocol": "as §2"}, "[4]": {"tested_on": "NCI-N87 xenografts relapsed from T-DM1", "conditions": "for T/C: Step II Day 22, vs T-DM1 group; for Number of Death / TV (mean ± SE): Step II Day 22", "protocol": "Male nude mice (BALB/cAJ1-mu/mu) were implanted with NCI-N87 human gastric carcinoma (HER2 overexpressing); 1.0×10^7 cells in 100 μL of PBS were implanted subcutaneously per mouse.\nPO; or treated with an oral suspension of Compound (1) once per day at a dosage of 25 mg/kg/day, PO. The tumor volumes (TV, mm^3) and body weights of the mice were recorded."}, "[5]": {"test": "brain binding, brain homogenate, equilibrium dialysis", "format": "in vitro ADME, nude mouse", "protocol": "Brain binding of Compound (1) in nude mice. Brain binding of Compound (1) at 0.005, 0.01, 0.05, 0.1, and 0.5 μmol/L using nude mouse brain homogenate was evaluated by equilibrium dialysis method. The brain binding at […] was not calculated due to the limit of quantification by LC-MS/MS, but at 0.05, 0.1, and 0.5 μmol/L was 99.6±0.0%, 99.5±0.0%, and 99.5±0.0%, respectively."}, "A-431 cells": {"tested_on": "A-431 cells", "test": "growth inhibitory effect in human cancer cell lines (GI50)", "format": "cell-based", "conditions": "wild-type EGFR gene amplification", "description": "(§3) Wild-type EGFR gene amplification without HER2 amplification has been observed in A-431 cells. HCC827 cells (lung cancer) have been reported as harboring an EGFR activating mutation (DelE746_A750). NCI-H1975 cells (lung cancer) have been reported as having activating and acquired EGFR resistance mutations (L858R and T790M)."}, "HCC827 cells": {"tested_on": "HCC827 cells", "test": "growth inhibitory effect in human cancer cell lines (GI50)", "format": "cell-based", "conditions": "lung cancer, EGFR DelE746_A750", "description": "as §3"}, "NCI-H1975 cells": {"tested_on": "NCI-H1975 cells", "test": "growth inhibitory effect in human cancer cell lines (GI50)", "format": "cell-based", "conditions": "lung cancer, EGFR L858R and T790M", "description": "as §3"}}, "note": "Like-named read-outs stand apart in the source and are kept apart here.", "data": [{"smiles": "C=CC(=O)N1C[C@H](n2c(C#CC3CC3)c(C(=O)N[C@H](C)c3ccccc3)c3c(N)ncnc32)C[C@@H]1C", "note": "[Compound (1), 7-((3R,5S)-1-acryloyl-5-methylpyrrolidin-3-yl)-4-amino-6-(cyclopropylethynyl)-N—((R)-1-phenylethyl)-7H-pyrrolo[2,3-d]pyrimidine-5-carboxamide]", "values": [{"measurement": "GI50", "setting": "[1]", "value": "8.71 ± 4.56", "unit": "nM"}, {"measurement": "T/C ratio of the mean total flux", "setting": "[2]; 16.0 mg/kg/day PO QD 21 days", "value": 16.9, "unit": "%"}, {"measurement": "mean body weight change (BWC)", "setting": "[2]; 16.0 mg/kg/day", "value": 1.4, "unit": "%"}, {"measurement": "T/C ratio of the mean total flux", "setting": "[2]; 20.0 mg/kg/day PO QD 21 days", "value": 4.7, "unit": "%"}, {"measurement": "mean body weight change (BWC)", "setting": "[2]; 20.0 mg/kg/day", "value": "−0.4", "unit": "%"}, {"measurement": "GI50", "setting": "NCI-N87 cells", "value": "0.891 ± 0.312", "unit": "nM"}, {"measurement": "GI50", "setting": "NCI-H1781 cells", "value": "5.85 ± 2.83", "unit": "nM"}, {"measurement": "GI50", "setting": "BT-474 cells", "value": "2.05 ± 0.48", "unit": "nM"}, {"measurement": "T/C ratio of the mean tumor volume", "setting": "[3]; 7.8 mg/kg/day orally once daily 14 days", "value": 52.8, "unit": "%"}, {"measurement": "T/C ratio of the mean tumor volume", "setting": "[3]; 12.5 mg/kg/day orally once daily 14 days", "value": 17.4, "unit": "%"}, {"measurement": "T/C ratio of the mean tumor volume", "setting": "[3]; 20.0 mg/kg/day orally once daily 14 days", "value": 8.7, "unit": "%"}, {"measurement": "toxicity (deaths, clinical signs, body weight loss ≥20%)", "setting": "[3]; 14 days treatment", "value": "acceptable toxicity"}, {"measurement": "efflux ratio at 2 h", "setting": "BCRP", "value": "2 ± 0.5"}, {"measurement": "efflux ratio at 3 h", "setting": "BCRP", "value": "1.4 ± 0.2"}, {"measurement": "efflux ratio at 2 h, 0.5 μmol/L", "setting": "human BCRP; with Ko143 10 μmol/L, read-out: net flux ratio", "value": "1.2 ± 0.3"}, {"measurement": "efflux ratio at 4 h, 0.3 μmol/L", "setting": "human BCRP; with Ko143 (concentration not stated for this arm), read-out: net flux ratio", "value": "1.1 ± 0.2"}, {"measurement": "efflux ratio at 0.3 μmol/L", "setting": "human BCRP; 0.3 μmol/L Compound (1), 3 and 4 hours, read-out: flux ratios in parent and human BCRP/MDCK II cells", "value": "> 2"}, {"measurement": "body weight loss (tolerance)", "setting": "[4]; 12.5 and 25 mg/kg/day", "value": "did not cause severe body weight loss"}, {"measurement": "T/C", "setting": "[4]; 12.5 mg/kg/day po Days 1-21", "value": 75.7, "unit": "%"}, {"measurement": "T/C", "setting": "[4]; 25 mg/kg/day po Days 1-21", "value": 62.4, "unit": "%"}, {"measurement": "Number of Death", "setting": "[4]; 12.5 mg/kg/day po Days 1-21", "value": 0}, {"measurement": "TV (mean ± SE)", "setting": "[4]; 12.5 mg/kg/day po Days 1-21", "value": 435.7, "unit": "mm^3"}, {"measurement": "Number of Death", "setting": "[4]; 25 mg/kg/day po Days 1-21", "value": 0}, {"measurement": "TV (mean ± SE)", "setting": "[4]; 25 mg/kg/day po Days 1-21", "value": 353.7, "unit": "mm^3"}, {"measurement": "brain binding", "setting": "[5]; 0.05 μmol/L", "value": "99.6±0.0", "unit": "%"}, {"measurement": "brain binding", "setting": "[5]; 0.1 μmol/L", "value": "99.5±0.0", "unit": "%"}, {"measurement": "brain binding", "setting": "[5]; 0.5 μmol/L", "value": "99.5±0.0", "unit": "%"}, {"measurement": "GI50", "setting": "A-431 cells", "value": "8.64 ± 1.07", "unit": "nM"}, {"measurement": "GI50", "setting": "HCC827 cells", "value": "2.13 ± 0.61", "unit": "nM"}, {"measurement": "GI50", "setting": "NCI-H1975 cells", "value": "37.5 ± 20.4", "unit": "nM"}]}]}
